Results from patent US8158621B2, “Methods of treating or preventing autoimmune diseases with 2,4-pyrimidinediamine compounds” (Rigel Pharmaceuticals, Inc., priority 2002, dated 2012).
“And” between values parts separate entries of the source, which are not always exact repeats. Identical values can stand only once. Like-named read-outs stand apart in the source and are kept apart here.

How the values were obtained:
[1] = system: basophil cells (human peripheral blood); experiment: Basophil ionomycin activation: histamine release assay; assay type: cell-based
How it was run: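 Dextran-sedimented leukocytes from peripheral blood of dust-mite-allergic human donors were incubated with compound (8 concentrations, 0.5% DMSO, triplicate) and then stimulated with 2 μM ionomycin stock (20 μl added) for 30 min at 37° C. Histamine released into the supernatant was measured by ELISA.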

[2] = system: Primary T-cells; experiment: Primary T-cell cytokine production (αCD3/αCD28): IL-2; assay type: cell-based, human; conditions: read-out: 1° T-Cell IL2 IC50
How it was run: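 IL-2 in 18 hr supernatants measured by ELISA against a standard curve or by Luminex multiplex, with IC50 derived relative to solvent-only wells. Non-adherent human donor lymphocytes were preincubated 30 min with compound, then moved to wells coated with αCD3 (5 μg/ml) and αCD28 (10 μg/ml).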

[3] = system: FcγRI-mediated degranulation; experiment: FcγRI-mediated degranulation (anti-human IgG Fab activation); assay type: cell-based; conditions: cells not primed with IgE, activated with rabbit anti-human IgG Fab fragment
[4] = Mouse Reverse Passive Arthus reaction (RPA reaction); assay type: in vivo, C57BL/6 mice; conditions: oral
How it was run: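 C57BL/6 mice dosed with compound before challenge, pretreatment time set by each compound's PK; rabbit anti-OVA IgG (50 μg/mouse) given intradermally, then ovalbumin 20 mg/kg i.v. with 1% Evans blue. Dorsal skin edema and hemorrhage read by dye extravasation at 4 h; purified polyclonal rabbit IgG as control.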

[5] = system: Primary T-cells; experiment: Primary T-cell cytokine production (αCD3/αCD28): IL-4; assay type: cell-based, human; conditions: read-out: 1° T-Cell IL4 IC50
Description: (§1) 2E8-4E8 PBMC or proliferating T cells grown in rIL-2 from healthy human donors were suspended in PBS were spun down (1500 rpm, 8-10 minutes) and resuspended in 100 ml RPMI Complete media (1% Pen-Strep, 1% L-Glutamine, 10 mM HEPES). The cells were plated in T175 flasks (37° C., 5% CO2) and monocytes were allowed to adhere for 2-3 hours. After monocyte attachment, non-adherent cells were harvested, counted by hemocytometer, washed several times with PBS then resuspended in Yssels Complete Media (Modified IMDM Media with 1% Human AB Serum, 1% Pen-Strep, 1% L-Glutamine, 10 mM HEPES) at […]. 90 uL of the cell dilution were then added to compounds diluted to 2× in Yssel's media and incubated for 30 minutes at 37° C. (5% CO2). After this preincubation step the compound/cell mixture was transferred to stimulation plates, as described below.
(§2) Stimulation plates were prepared by coating 96 well plates with 5 μg/ml αCD3 (BD PharMingen, Catalog #555336)+10 μg/ml αCD28 (Beckman Coulter, Catalog #IM1376) in PBS (no Ca^2+/Mg^2+) at 37° C. (5% CO2) for at 3-5 hours. After incubation with the stimulation antibodies, the cocktail was removed and the plates washed 3 times with PBS prior to addition of the primary T cell/compound mixture.
(§3) The compound/cell mixture was transferred to the stimulation plates and incubated for 18 hr at 37° C. (5% CO2). After the cell stimulation, ˜150 μl supernatant were transferred from each well into 96-well filter plates (Coming PVDF Filter Plates) spun down (2000 rpm, 2-3 minutes) and either used immediately for ELISA or LUMINEX measurements or frozen down at −80° C. for future use.
(§4) Luminex immunoassay multiplexing for TNF, IL-2, GMSCF, IL-4 and IFNg was performed essentially as described by the manufacturer (Upstate Biotechnology). Essentially 50 uL of sample was diluted into 50 uL assay diluent and 50 uL incubation buffer, then incubated with 100 uL of the diluted detection antibody for 1 hr at RT in the dark. The filter plate was washed 2× in Wash Buffer, then incubated with 100 uL of the diluted secondary reagent (SAV-RPE) for 30 min at RT in the dark. Finally the plates were washed 3 times and bead identification and RPE fluorescent measured by the Luminex instrument.
(§5) Varied concentrations of compound were compared to solvent only to determine the inhibition of T-cell activation IC50 of each compound.

[6] = system: Primary T-cells; experiment: Primary T-cell cytokine production (αCD3/αCD28): IFNg; assay type: cell-based, human; conditions: read-out: 1° T-Cell IFNg IC50
Description: as §1, §2, §3, §4, §5

[7] = system: cultured human mast cells (CHMC); experiment: CHMC low cell density IgE activation: tryptase assay; assay type: cell-based
How it was run: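 Supernatant tryptase activity, assayed with substrate for 30 min at room temperature, served as the degranulation measure. Mast cells (1000-1500 per well depending on donor) sat 1 hr at 37° C in MT before a 30 min anti-IgE challenge at 37° C.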

[8] = system: cultured human mast cells (CHMC); experiment: CHMC low cell density ionomycin activation: tryptase assay; assay type: cell-based
[9] = basophils, ionomycin activation, histamine release, read-out: Basophils Ionomycin Histamine IC50
[10] = 50 mg/kg, pretreatment time 1 hrs
[11] = 100 mg/kg, pretreatment time 1 hrs
[12] = 200 mg/kg, 60 minutes prior to challenge
[13] = 200 mg/kg, pretreatment time 1 hrs
[14] = low cell density, read-out: CHMC anti-IgE Tryptase
[15] = low cell density, read-out: CHMC Ionomycin Tryptase
[16] = 100 mg/kg, pretreatment time 0.5 hrs
[17] = 100 mg/kg, pretreatment time 0.5 hrs + 4 hours
[18] = 100 mg/kg, pretreatment time 1 hrs + 4 hours
[19] = 100 mg/kg, pretreatment time 2 hrs
[20] = 100 mg/kg, pretreatment time 2 hrs + 4 hours
[21] = Low Density CHMC, anti-IgE activation, tryptase release, read-out: CHMC anti-IgE Tryptase IC50
[22] = Low Density CHMC, ionomycin activation, tryptase release, read-out: CHMC Ionomycin Tryptase IC50

SMILES	IC50 [2]	IC50 [5]	IC50 [6]	IC50 [1, 9]	inhibition of FcγRI-mediated degranulation [3]	% inhibition to vehicle control Edema Size ± SEM [4, 11]	% inhibition to vehicle control Edema Size ± SEM [4, 16]	further results
CNC(=O)COc1cccc(Nc2ncc(F)c(Nc3cccc(O)c3)n2)c1 [Compound R926508]	917 nM	–	–	> 10000 nM	–	–	–	–
Oc1cccc(Nc2ncc(F)c(Nc3cccc(O)c3)n2)c1 [Compound R921218]	3240 nM	–	–	> 10000 nM	inhibit FcγRI-mediated degranulation	–	–	–
CNC(=O)COc1cccc(Nc2ncc(F)c(Nc3ccc4c(c3)NC(=O)C(F)(F)O4)n2)c1 [Compound R921303]	1020 nM	366 nM	1280 nM	–	inhibit FcγRI-mediated degranulation	80.5 ± 9.8% and 81.2%	–	dose-dependent inhibition of edema formation ([4]; 50 mg/kg): 65.4%; % inhibition to vehicle control Edema Size ± SEM [4, 10]: 64.1 ± 13.3% and 65.4%; dose-dependent inhibition of edema formation ([4]; 100 mg/kg): 81.2%; dose-dependent inhibition of edema formation ([4]; 200 mg/kg): 100%; inhibition of edema formation [4, 12]: 100%; % inhibition to vehicle control Edema Size ± SEM ([4]; 200 mg/kg, pretreatment time 0.5 hrs): 100 ± 0%; Plasma Concentration ± SEM (ng/ml) Exposure = Pretreatment Time + 4 hours ([4]; 200 mg/kg, pretreatment time 0.5 hrs + 4 hours): 3703 ± 785 ng/mL; inhibition of edema formation ([4]; 200 mg/kg, pretreatment time 30 minutes): 100%; % inhibition to vehicle control Edema Size ± SEM [4, 13]: 100 ± 0% and 100%; % inhibition to vehicle control Edema Size ± SEM ([4]; 200 mg/kg, pretreatment time 2 hrs): 93.3 ± 4.4%; Plasma Concentration ± SEM (ng/ml) Exposure = Pretreatment Time + 4 hours ([4]; 200 mg/kg, pretreatment time 2 hrs + 4 hours): 2678 ± 496 ng/mL; inhibition of edema formation ([4]; 200 mg/kg, pretreatment time 120 minutes): 93.6%
COc1ccc(Nc2ncc(F)c(Nc3cccc(O)c3)n2)cc1OC [Compound R926113]	–	–	–	> 10000 nM	–	–	–	IC50 [7, 21]: 413 nM
Fc1cnc(Nc2ccc3c(c2)OCCO3)nc1Nc1ccc2c(c1)OCCO2 [Compound R926109]	–	–	–	> 10000 nM	–	–	–	IC50 [7, 21]: 538 nM; IC50 [8, 22]: 5500 nM
Nc1cccc(Nc2ncc(F)c(Nc3cccc(N)c3)n2)c1 [Compound R921302]	5180 nM	245 nM	3900 nM	–	inhibit FcγRI-mediated degranulation	82.1 ± 10.9% and 92.3 ± 4.2% and 93.2%	89.44 ± 4.8%	inhibition of edema formation ([4]; 50 mg/kg, 60 minutes prior to Ab/Ag challenge): 49.9%; % inhibition to vehicle control Edema Size ± SEM [4, 10]: 50.0 ± 6.4% and 49.9%; inhibition of edema (therapeutic) ([4]; 100 mg/kg, 30 minutes post-challenge): 77.5%; inhibition of edema formation ([4]; 100 mg/kg, 60 minutes prior to Ab/Ag challenge): 93.2%; inhibition of edema formation [4, 12]: 99.1%; % inhibition to vehicle control Edema Size ± SEM [4, 13]: 99.1 ± 0.9% and 99.1%; IC50 ([1]; read-out: Basophils Ionomycin Histamine): > 10000 nM
CNC(=O)COc1cccc(Nc2ncc(F)c(Nc3ccc4c(n3)NC(=O)CO4)n2)c1 [Compound R921304]	2770 nM	366 nM	2890 nM	–	–	–	–	–
OCCCn1ncc2cc(Nc3ncc(F)c(Nc4ccc(Cl)c(Cl)c4)n3)ccc21 [Compound R935391]	–	–	–	–	–	–	–	IC50 [7, 14]: 212 nM; IC50 [8, 15]: > 10000 nM
COc1ccc(Nc2ncc(F)c(Nc3ccc(OC)c(OC)c3)n2)cc1OC [Compound R926110]	–	–	–	> 10000 nM	–	–	–	IC50 [7, 21]: 1070 nM; IC50 [8, 22]: > 10000 nM
CNC(=O)COc1cccc(Nc2ncc(F)c(Nc3ccc4c(c3)NCCO4)n2)c1 [Compound R921219]	546 nM	–	–	> 10000 nM	–	–	–	–
CNC(=O)COc1cccc(Nc2ncc(F)c(Nc3ccc(OC(F)(F)F)c(Cl)c3)n2)c1 [Compound R920410]	3360 nM	546 nM	4310 nM	–	inhibit FcγRI-mediated degranulation	42.6 ± 15.1%	–	–
CC1(C)Oc2ccc(Nc3nc(Nc4ccc5cn[nH]c5c4)ncc3F)cc2NC1=O [Compound R940363]	–	–	–	–	–	67.6 ± 12.1% and 61 ± 8%	−16.4 ± 10.9%	IC50 [7, 14]: 48 nM; Plasma Concentration ± SEM (ng/ml) Exposure = Pretreatment Time + 4 hours [4, 17]: 32 ± 10 ng/mL; % inhibition to vehicle control Edema Size ± SEM [4, 19]: 52.3 ± 22.7%; Plasma Concentration ± SEM (ng/ml) Exposure = Pretreatment Time + 4 hours [4, 20]: 37 ± 18 ng/mL; IC50 [8, 15]: > 10000 nM

More lines, main results first:

IC50 [2]	IC50 [5]	IC50 [6]	SMILES	IC50 [1, 9]	inhibition of FcγRI-mediated degranulation [3]	% inhibition to vehicle control Edema Size ± SEM [4, 11]	% inhibition to vehicle control Edema Size ± SEM [4, 16]	further results
> 10000 nM	–	> 10000 nM	CC1(C)Oc2ccc(Nc3nc(Nc4cc(Cl)cc(Cl)c4)ncc3F)cc2NC1=O [Compound R927064]	–	–	–	–	IC50 [7, 14]: 212 nM; IC50 [8, 15]: 7240 nM
928 nM	275 nM	916 nM	COc1cc(Nc2ncc(F)c(Nc3ccc4c(c3)NC(=O)C(C)(C)O4)n2)cc(OC)c1 [Compound R927050]	–	inhibit FcγRI-mediated degranulation	14.9 ± 20.5% and 7 ± 19%	−0.3 ± 6.6%	IC50 [7, 14]: 73 nM; Plasma Concentration ± SEM (ng/ml) Exposure = Pretreatment Time + 4 hours [4, 17]: 619 ± 130 ng/mL; Plasma Concentration ± SEM (ng/ml) Exposure = Pretreatment Time + 4 hours [4, 18]: 837 ± 104 ng/mL and 1018 ± 189 ng/mL; % inhibition to vehicle control Edema Size ± SEM [4, 19]: 64.0 ± 8.9%; Plasma Concentration ± SEM (ng/ml) Exposure = Pretreatment Time + 4 hours [4, 20]: 557 ± 78 ng/mL; IC50 [8, 15]: 3290 nM
2990 nM	501 nM	2470 nM	CC1(C)Oc2ccc(Nc3ncc(F)c(Nc4ccc5c(c4)NC(=O)C(C)(C)O5)n3)cc2NC1=O [Compound R940350]	–	inhibit FcγRI-mediated degranulation	–	−15.6 ± 27.2%	Plasma Concentration ± SEM (ng/ml) Exposure = Pretreatment Time + 4 hours [4, 17]: 176 ± 58 ng/mL; Plasma Concentration ± SEM (ng/ml) Exposure = Pretreatment Time + 4 hours [4, 18]: 129 ± 55 ng/mL; % inhibition to vehicle control Edema Size ± SEM [4, 19]: 38.9 ± 24.3%; Plasma Concentration ± SEM (ng/ml) Exposure = Pretreatment Time + 4 hours [4, 20]: 96 ± 28 ng/mL
1890 nM	212 nM	1670 nM	CNC(=O)COc1cccc(Nc2ncc(F)c(Nc3ccc4c(n3)NC(=O)C(C)(C)O4)n2)c1 [Compound R940347]	–	inhibit FcγRI-mediated degranulation	48.2 ± 5.7% and 48%	36.7 ± 22.4%	inhibition of edema ([4]; 100 mg/kg, 2 hours prior to challenge): 89%; % inhibition to vehicle control Edema Size ± SEM [4, 19]: 88.9 ± 9.1% and 89%
